Experiments:
PI5P4Kα = target: T1, PI5P4Kα (Homo sapiens, UniProt P48426); experiment: Thermal shift assay; conditions: read-out: ΔTm PI5P4Kα, thermal shift, compound 63 μM
T1 sequence (P48426 1-406): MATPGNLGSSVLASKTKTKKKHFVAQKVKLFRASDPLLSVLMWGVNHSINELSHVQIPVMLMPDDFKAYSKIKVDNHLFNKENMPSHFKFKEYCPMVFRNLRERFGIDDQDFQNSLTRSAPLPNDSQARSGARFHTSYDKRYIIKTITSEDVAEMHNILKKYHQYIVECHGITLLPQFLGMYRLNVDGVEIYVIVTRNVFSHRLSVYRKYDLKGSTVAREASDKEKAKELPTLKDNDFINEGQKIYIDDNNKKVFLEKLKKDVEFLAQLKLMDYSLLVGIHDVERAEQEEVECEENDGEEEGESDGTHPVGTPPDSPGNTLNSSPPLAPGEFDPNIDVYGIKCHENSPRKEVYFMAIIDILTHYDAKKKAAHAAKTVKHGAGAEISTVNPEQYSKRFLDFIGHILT

MLK3 = MLK3 (Homo sapiens, UniProt Q16584); experiment: Kinase panel, radiometric 33P filter binding; conditions: read-out: % activity remaining
From the text: (§2) filter binding assay using 33P-g-ATPat the MRC PPU International Centre for Kinase Profiling, University of

BRK = BRK (Homo sapiens, UniProt Q13882); experiment: Kinase panel, radiometric 33P filter binding; conditions: read-out: % activity remaining
From the text: as §2

PKCa = PKCa (Homo sapiens, UniProt P17252); experiment: Kinase panel, radiometric 33P filter binding; conditions: read-out: % activity remaining
From the text: as §2

SGK1 = SGK1 (Homo sapiens, UniProt O00141); experiment: Kinase panel, radiometric 33P filter binding; conditions: read-out: % activity remaining
From the text: as §2

MINK1 = MINK1 (Homo sapiens, UniProt Q8N4C8); experiment: Kinase panel, radiometric 33P filter binding; conditions: read-out: % activity remaining
From the text: as §2

EIF2AK3 = EIF2AK3 (Homo sapiens, UniProt Q9NZJ5); experiment: Kinase panel, radiometric 33P filter binding; conditions: read-out: % activity remaining
From the text: as §2

TGFBR1 = TGFBR1 (Homo sapiens, UniProt P36897); experiment: Kinase panel, radiometric 33P filter binding; conditions: read-out: % activity remaining
TGFBR1, sequence (P36897 34-503): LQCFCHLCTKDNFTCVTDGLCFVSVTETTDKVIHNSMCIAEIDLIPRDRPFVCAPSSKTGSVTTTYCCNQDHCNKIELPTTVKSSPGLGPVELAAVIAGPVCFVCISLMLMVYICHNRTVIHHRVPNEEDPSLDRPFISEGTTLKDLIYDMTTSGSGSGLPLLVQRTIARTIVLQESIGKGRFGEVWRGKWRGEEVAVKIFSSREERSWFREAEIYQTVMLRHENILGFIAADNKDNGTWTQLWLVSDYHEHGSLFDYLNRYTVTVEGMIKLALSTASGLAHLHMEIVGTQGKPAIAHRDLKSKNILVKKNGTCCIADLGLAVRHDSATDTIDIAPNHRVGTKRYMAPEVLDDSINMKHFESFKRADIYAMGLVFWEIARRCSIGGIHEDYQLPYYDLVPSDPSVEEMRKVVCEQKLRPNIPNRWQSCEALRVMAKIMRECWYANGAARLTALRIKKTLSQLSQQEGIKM

GSK3b = GSK3b (Homo sapiens, UniProt P49841); experiment: Kinase panel, radiometric 33P filter binding; conditions: read-out: % activity remaining
GSK3b, sequence (P49841 whole entry): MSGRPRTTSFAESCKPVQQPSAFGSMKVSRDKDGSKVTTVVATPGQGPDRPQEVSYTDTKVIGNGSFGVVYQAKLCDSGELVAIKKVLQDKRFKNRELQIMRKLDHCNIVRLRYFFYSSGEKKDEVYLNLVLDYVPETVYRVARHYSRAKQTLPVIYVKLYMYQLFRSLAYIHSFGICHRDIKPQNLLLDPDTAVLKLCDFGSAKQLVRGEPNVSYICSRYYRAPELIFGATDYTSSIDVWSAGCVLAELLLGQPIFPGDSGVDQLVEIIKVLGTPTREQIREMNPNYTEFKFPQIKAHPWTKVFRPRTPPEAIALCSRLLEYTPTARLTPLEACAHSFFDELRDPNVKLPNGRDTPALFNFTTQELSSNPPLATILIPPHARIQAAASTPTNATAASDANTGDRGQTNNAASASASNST
From the text: as §2

CAMKKb = CAMKKb (Homo sapiens, UniProt Q96RR4); experiment: Kinase panel, radiometric 33P filter binding; conditions: read-out: % activity remaining
CAMKKb, sequence (Q96RR4 whole entry): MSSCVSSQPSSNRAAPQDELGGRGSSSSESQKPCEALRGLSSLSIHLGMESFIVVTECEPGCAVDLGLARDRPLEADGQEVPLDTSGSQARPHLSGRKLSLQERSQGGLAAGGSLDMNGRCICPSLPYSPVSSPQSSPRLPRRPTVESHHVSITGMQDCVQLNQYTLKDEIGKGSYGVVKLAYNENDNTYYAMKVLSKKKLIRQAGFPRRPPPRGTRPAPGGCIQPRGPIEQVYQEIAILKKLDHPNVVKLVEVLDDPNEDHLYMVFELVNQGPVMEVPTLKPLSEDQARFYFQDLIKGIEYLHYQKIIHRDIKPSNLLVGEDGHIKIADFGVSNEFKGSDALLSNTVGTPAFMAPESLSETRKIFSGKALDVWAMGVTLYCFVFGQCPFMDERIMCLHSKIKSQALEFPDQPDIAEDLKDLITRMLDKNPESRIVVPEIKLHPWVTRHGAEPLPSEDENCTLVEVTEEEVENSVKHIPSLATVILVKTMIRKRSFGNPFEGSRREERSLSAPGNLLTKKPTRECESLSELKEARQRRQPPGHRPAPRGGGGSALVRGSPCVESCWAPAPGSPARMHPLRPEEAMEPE
From the text: as §2

SmMLCK = SmMLCK (Homo sapiens, UniProt Q15746); experiment: Kinase panel, radiometric 33P filter binding; assay type: biochemical
From the text: (§1) Kinase % activity remaining s.d.

ABL = ABL (Homo sapiens, UniProt P00519); experiment: Kinase panel, radiometric 33P filter binding; assay type: biochemical
From the text: as §1

CDK9-Cyclin T1 = CDK9-Cyclin T1 (Homo sapiens, UniProt P50750); experiment: Kinase panel, radiometric 33P filter binding; assay type: biochemical; conditions: CDK9-Cyclin T1, 10 μM
From the text: as §1

BRSK2 = BRSK2 (Homo sapiens, UniProt Q8IWQ3); experiment: Kinase panel, radiometric 33P filter binding; conditions: read-out: % activity remaining
From the text: as §2

PKCz = PKCz (Homo sapiens, UniProt Q05513); experiment: Kinase panel, radiometric 33P filter binding; conditions: read-out: % activity remaining
From the text: as §2

MST3 = MST3 (Homo sapiens, UniProt Q9Y6E0); experiment: Kinase panel, radiometric 33P filter binding; conditions: read-out: % activity remaining
MST3, sequence (Q9Y6E0 whole entry): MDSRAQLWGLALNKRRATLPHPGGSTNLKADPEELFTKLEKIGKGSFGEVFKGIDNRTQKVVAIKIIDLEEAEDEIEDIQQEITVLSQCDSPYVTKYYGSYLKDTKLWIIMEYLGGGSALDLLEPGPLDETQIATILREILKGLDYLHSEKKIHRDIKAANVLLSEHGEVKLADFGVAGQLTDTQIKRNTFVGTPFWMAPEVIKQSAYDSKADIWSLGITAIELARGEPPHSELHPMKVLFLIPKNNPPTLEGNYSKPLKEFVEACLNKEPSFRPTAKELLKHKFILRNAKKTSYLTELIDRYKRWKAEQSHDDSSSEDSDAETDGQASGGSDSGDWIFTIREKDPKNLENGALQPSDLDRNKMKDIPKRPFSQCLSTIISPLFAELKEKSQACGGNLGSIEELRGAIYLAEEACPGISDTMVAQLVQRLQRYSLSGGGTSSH

PKBb = PKBb (Homo sapiens, UniProt P31751); experiment: Kinase panel, radiometric 33P filter binding; conditions: read-out: % activity remaining
From the text: as §2

PKCγ = PKCγ (Homo sapiens, UniProt P05129); experiment: Kinase panel, radiometric 33P filter binding; conditions: read-out: % activity remaining
From the text: as §2

PAK4 = PAK4 (Homo sapiens, UniProt O96013); experiment: Kinase panel, radiometric 33P filter binding; conditions: read-out: % activity remaining
PAK4, sequence (O96013 whole entry): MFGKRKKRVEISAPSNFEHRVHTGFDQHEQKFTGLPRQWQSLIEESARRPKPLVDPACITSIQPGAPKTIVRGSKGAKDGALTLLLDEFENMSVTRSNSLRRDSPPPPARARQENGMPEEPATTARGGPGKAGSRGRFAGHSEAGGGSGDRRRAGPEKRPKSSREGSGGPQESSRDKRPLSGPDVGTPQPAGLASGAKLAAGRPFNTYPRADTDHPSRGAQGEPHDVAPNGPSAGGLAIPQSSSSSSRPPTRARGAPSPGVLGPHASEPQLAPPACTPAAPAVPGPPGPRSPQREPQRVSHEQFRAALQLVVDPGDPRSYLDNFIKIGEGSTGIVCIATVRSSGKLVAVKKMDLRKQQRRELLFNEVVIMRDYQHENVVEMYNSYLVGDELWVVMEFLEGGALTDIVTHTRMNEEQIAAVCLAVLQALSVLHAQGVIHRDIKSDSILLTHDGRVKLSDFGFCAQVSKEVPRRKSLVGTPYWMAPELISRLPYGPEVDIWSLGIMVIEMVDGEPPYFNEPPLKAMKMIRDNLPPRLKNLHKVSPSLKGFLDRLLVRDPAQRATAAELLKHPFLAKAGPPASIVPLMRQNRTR
From the text: as §2

PAK2 = PAK2 (Homo sapiens, UniProt Q13177); experiment: Kinase panel, radiometric 33P filter binding
PAK2, sequence (Q13177 whole entry): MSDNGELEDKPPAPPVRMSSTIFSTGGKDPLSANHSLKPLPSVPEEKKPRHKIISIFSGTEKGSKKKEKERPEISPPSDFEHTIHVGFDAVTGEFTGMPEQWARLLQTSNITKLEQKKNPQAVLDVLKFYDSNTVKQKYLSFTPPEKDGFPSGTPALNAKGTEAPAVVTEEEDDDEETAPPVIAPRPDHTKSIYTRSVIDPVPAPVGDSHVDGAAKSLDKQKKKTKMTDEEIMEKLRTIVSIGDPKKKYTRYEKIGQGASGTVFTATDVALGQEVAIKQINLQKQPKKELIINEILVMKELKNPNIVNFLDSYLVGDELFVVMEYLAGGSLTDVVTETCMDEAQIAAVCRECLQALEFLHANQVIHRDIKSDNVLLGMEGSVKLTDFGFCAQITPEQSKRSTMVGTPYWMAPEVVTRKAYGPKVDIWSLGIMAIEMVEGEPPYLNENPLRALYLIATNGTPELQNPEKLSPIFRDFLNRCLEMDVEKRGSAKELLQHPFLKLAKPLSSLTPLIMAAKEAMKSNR

PKA = PKA (Homo sapiens, UniProt P17612); experiment: Kinase panel, radiometric 33P filter binding; conditions: read-out: % activity remaining
From the text: as §2

DYRK1A = DYRK1A (Homo sapiens, UniProt Q13627); experiment: Kinase panel, radiometric 33P filter binding; conditions: read-out: % activity remaining
From the text: as §2

ZAP70 = ZAP70 (Homo sapiens, UniProt P43403); experiment: Kinase panel, radiometric 33P filter binding; conditions: read-out: % activity remaining
ZAP70, sequence (P43403 whole entry): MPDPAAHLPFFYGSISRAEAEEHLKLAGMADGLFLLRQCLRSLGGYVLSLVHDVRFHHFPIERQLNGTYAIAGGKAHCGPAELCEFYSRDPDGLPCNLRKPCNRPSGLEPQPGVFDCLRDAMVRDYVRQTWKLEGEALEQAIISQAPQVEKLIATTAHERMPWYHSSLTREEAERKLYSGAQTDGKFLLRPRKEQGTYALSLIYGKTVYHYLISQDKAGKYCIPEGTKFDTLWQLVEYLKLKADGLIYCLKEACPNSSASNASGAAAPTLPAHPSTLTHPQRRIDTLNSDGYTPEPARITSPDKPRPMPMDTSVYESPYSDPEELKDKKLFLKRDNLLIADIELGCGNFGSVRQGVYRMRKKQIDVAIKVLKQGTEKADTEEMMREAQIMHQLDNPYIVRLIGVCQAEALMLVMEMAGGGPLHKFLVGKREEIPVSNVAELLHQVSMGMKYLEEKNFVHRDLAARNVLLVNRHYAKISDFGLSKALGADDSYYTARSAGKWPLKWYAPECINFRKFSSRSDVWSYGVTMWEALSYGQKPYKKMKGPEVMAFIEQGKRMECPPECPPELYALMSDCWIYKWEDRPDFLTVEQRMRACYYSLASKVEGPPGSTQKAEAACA

CK1γ2 = CK1γ2 (Homo sapiens, UniProt P78368); experiment: Kinase panel, radiometric 33P filter binding; conditions: read-out: % activity remaining
From the text: as §2

MPSK1 = MPSK1 (Homo sapiens, UniProt O75716); experiment: Kinase panel, radiometric 33P filter binding; conditions: read-out: % activity remaining
MPSK1, sequence (O75716 whole entry): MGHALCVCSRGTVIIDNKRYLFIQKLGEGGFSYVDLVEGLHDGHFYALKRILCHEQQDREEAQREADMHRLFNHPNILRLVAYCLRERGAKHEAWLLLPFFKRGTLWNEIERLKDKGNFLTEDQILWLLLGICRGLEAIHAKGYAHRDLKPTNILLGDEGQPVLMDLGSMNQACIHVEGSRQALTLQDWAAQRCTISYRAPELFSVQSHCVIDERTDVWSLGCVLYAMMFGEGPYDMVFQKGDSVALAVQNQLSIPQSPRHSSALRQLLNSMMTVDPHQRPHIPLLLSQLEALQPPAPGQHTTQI
From the text: as §2

DYRK2 = DYRK2 (Homo sapiens, UniProt Q92630); experiment: Kinase panel, radiometric 33P filter binding; conditions: read-out: % activity remaining
From the text: as §2

CDK2-Cyclin A = CDK2-Cyclin A (Homo sapiens, UniProt P24941); experiment: Kinase panel, radiometric 33P filter binding; conditions: read-out: % activity remaining
From the text: as §2

MELK = MELK (Homo sapiens, UniProt Q14680); experiment: Kinase panel, radiometric 33P filter binding; conditions: read-out: % activity remaining
MELK, sequence (Q14680 whole entry): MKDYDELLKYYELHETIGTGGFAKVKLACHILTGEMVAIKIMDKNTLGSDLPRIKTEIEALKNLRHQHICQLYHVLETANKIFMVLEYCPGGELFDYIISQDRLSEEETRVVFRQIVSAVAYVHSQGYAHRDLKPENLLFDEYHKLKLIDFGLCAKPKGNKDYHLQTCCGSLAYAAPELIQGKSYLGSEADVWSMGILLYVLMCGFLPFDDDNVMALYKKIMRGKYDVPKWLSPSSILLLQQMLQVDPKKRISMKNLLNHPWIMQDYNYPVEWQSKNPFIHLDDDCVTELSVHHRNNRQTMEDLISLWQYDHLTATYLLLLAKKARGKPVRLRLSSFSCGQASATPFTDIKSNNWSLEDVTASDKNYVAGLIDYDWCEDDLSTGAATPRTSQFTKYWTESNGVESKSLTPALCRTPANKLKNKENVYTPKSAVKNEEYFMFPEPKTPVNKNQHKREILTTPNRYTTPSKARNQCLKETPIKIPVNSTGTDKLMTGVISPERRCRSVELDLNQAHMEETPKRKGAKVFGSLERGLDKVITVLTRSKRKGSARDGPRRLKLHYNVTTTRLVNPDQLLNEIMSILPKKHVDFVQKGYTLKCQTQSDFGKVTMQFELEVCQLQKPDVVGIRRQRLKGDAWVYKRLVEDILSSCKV
From the text: as §2

Aurora B = Aurora B (Homo sapiens, UniProt Q96GD4); experiment: Kinase panel, radiometric 33P filter binding; conditions: read-out: % activity remaining
Aurora B, sequence (Q96GD4 whole entry): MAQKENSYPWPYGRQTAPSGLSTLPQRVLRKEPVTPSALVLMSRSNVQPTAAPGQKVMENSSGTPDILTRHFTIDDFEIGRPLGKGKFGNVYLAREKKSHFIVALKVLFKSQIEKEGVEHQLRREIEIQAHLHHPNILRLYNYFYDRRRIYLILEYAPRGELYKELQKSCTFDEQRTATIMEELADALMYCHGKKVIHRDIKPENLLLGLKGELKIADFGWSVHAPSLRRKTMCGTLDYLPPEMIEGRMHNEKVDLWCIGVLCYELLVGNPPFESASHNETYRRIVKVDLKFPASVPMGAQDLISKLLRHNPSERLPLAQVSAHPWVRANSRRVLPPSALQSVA
From the text: as §2

IGF-1R = IGF-1R (Homo sapiens, UniProt P08069); experiment: Kinase panel, radiometric 33P filter binding; conditions: read-out: % activity remaining
From the text: as §2

RSK2 = RSK2 (Homo sapiens, UniProt P51812); experiment: Kinase panel, radiometric 33P filter binding; conditions: read-out: % activity remaining
From the text: as §2

TAO1 = TAO1 (Homo sapiens, UniProt Q7L7X3); experiment: Kinase panel, radiometric 33P filter binding; conditions: read-out: % activity remaining
From the text: as §2

EPH-B2 = EPH-B2 (Homo sapiens, UniProt P29323); experiment: Kinase panel, radiometric 33P filter binding; conditions: read-out: % activity remaining
From the text: as §2

FC(F)(F)c1ccccc1-c1nc(NCc2cccs2)c2ccccc2n1 [Compound 1, NIH-12848, reference compound]
ΔTm at 63 µM (PI5P4Kα): -0.2 ± 0.4 °C

CC(C)c1ccccc1-c1nc(NCc2ccccn2)c2c(ccn2C)n1 [Compound 40]
remaining activity at 10 µM (MLK3): 90%
remaining activity at 10 µM (BRK): 112%
remaining activity at 10 µM (PKCa): 118%
remaining activity at 10 µM (SGK1): 98%
remaining activity at 10 µM (MINK1): 95%
remaining activity at 10 µM (EIF2AK3): 103%
remaining activity at 10 µM (TGFBR1): 91%
remaining activity at 10 µM (GSK3b): 93%
remaining activity at 10 µM (CAMKKb): 99%
remaining activity at 10 µM (SmMLCK): 108%
remaining activity at 10 µM (ABL): 108%
remaining activity at 10 µM (CDK9-Cyclin T1): 108%
remaining activity at 10 µM (BRSK2): 83%
remaining activity at 10 µM (PKCz): 111%
remaining activity at 10 µM (MST3): 110%
remaining activity at 10 µM (PKBb): 75%
remaining activity at 10 µM (PKCγ): 77%
remaining activity at 10 µM (PAK4): 95%
% activity remaining (PAK2; PAK2, 10 μM, 10 µM): < 50%
remaining activity at 10 µM (PAK2; read-out: % activity remaining, PAK2, 10 μM): 45%
remaining activity at 10 µM (PKA): 109%
remaining activity at 10 µM (DYRK1A): 101%
remaining activity at 10 µM (ZAP70): 95%
remaining activity at 10 µM (CK1γ2): 97%
remaining activity at 10 µM (MPSK1): 106%
remaining activity at 10 µM (DYRK2): 106%
remaining activity at 10 µM (CDK2-Cyclin A): 103%
remaining activity at 10 µM (MELK): 95%
remaining activity at 10 µM (Aurora B): 113%
remaining activity at 10 µM (IGF-1R): 107%
remaining activity at 10 µM (RSK2): 106%
remaining activity at 10 µM (TAO1): 115%
remaining activity at 10 µM (EPH-B2): 78%

Reference: article PMC9097471, “Development of Selective Phosphatidylinositol 5-Phosphate 4-Kinase γ Inhibitors with a Non-ATP-competitive, Allosteric Binding Mode” (Journal of Medicinal Chemistry, 2022)
